This passage reports GI50 and TGI results from PubChem BioAssay (NCI).

Test systems include DU-145 prostate; HOP-92 NSCLC; HT29 colon; KM12 colon; LOX IMVI melanoma; NCI-H23 lung; OVCAR-3 ovarian; OVCAR-8 ovarian; SF-295 CNS; SW-620 colon.
Assay in all cases: inhibition of tumour cell growth, NCI panel, 48 h

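Test compounds were applied to cells in 96-well plates for 48 hours at 5 doses. GI50 marks 50% less growth. At the TGI there is no net growth.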

`CCOC(=O)c1c(C(F)(F)F)n([O-])c2ccc(OC)cc2[n+]1=O`: the GI50 is 5.15 µM with DU-145 prostate; 2.51 µM with HOP-92 NSCLC; 7.89 µM in the assay on HT29 colon; 7.99 µM with KM12 colon; 5.22 µM with LOX IMVI melanoma; 3.68 µM with NCI-H23 lung. The GI50 in the assay on OVCAR-3 ovarian was 4.31 µM; in the assay on OVCAR-8 ovarian, 5.12 µM; in the assay with SF-295 CNS, 2.61 µM; in the assay on SW-620 colon it was 5.79 µM. The TGI in the assay with DU-145 prostate was more than 100 µM; in the assay with HOP-92 NSCLC it was 11.9 µM; in the assay with HT29 colon, more than 100 µM; in the assay on KM12 colon it was more than 100 µM; in the assay with LOX IMVI melanoma it was 25.4 µM; with NCI-H23 lung, 26.6 µM. For the same compound, the TGI in the assay with OVCAR-3 ovarian was 44.8 µM; in the assay with OVCAR-8 ovarian, more than 100 µM; with SF-295 CNS, 8.79 µM; with SW-620 colon, more than 100 µM.
On to `C[C@@]12CCC(=O)C=C1CC[C@H]1C2=CC[C@]2(C)C1CC[C@@]2(C)O` (stereo not given in full), for which the TGI in the assay with DU-145 prostate, with HOP-92 NSCLC, in the assay on HT29 colon, with KM12 colon, in the assay with LOX IMVI melanoma and with NCI-H23 lung was more than 100 µM each time. Also, the TGI in the assay on OVCAR-3 ovarian, in the assay with OVCAR-8 ovarian, with SF-295 CNS and in the assay with SW-620 colon was more than 100 µM each time.
With `N#Cc1ccnc(N2C(=O)CC[C@H]2C(=O)N(c2cncc(F)c2)[C@H](C(=O)NC2CC(F)(F)C2)c2ccccc2Cl)c1`, the GI50 was 82.5 µM in the assay on DU-145 prostate; 73 µM in the assay on HOP-92 NSCLC; 56.2 µM in the assay with HT29 colon; 67 µM in the assay on KM12 colon; 52.6 µM in the assay on LOX IMVI melanoma; more than 100 µM in the assay with NCI-H23 lung. Also, the GI50 in the assay with OVCAR-3 ovarian is 63.9 µM; with OVCAR-8 ovarian, more than 100 µM; in the assay on SF-295 CNS, more than 100 µM; in the assay on SW-620 colon, more than 100 µM. Further, the TGI in the assay with DU-145 prostate, in the assay on HOP-92 NSCLC, in the assay on HT29 colon, in the assay on KM12 colon, with LOX IMVI melanoma and in the assay with NCI-H23 lung was more than 100 µM throughout. In addition, the TGI with OVCAR-3 ovarian, with OVCAR-8 ovarian, in the assay with SF-295 CNS and in the assay with SW-620 colon was more than 100 µM in each case.
As for `COc1ccc2c(c1)CC[C@@H]1[C@@H]2CC[C@]2(C)C(c3ccco3)=C(C=O)C[C@@H]12`, the GI50 in the assay with DU-145 prostate was 7.82 µM; in the assay on HOP-92 NSCLC, 8.38 µM; in the assay on HT29 colon, 5.37 µM; with KM12 colon it was 3.35 µM; in the assay with LOX IMVI melanoma it was 6.89 µM; in the assay with NCI-H23 lung, 12.7 µM. In addition, the GI50 in the assay with OVCAR-3 ovarian was 2.08 µM; in the assay with OVCAR-8 ovarian it was 31.1 µM; in the assay on SF-295 CNS it was 3.4 µM; in the assay with SW-620 colon, 6.26 µM. Also, the TGI is 27 µM in the assay with DU-145 prostate; 28 µM with HOP-92 NSCLC; more than 100 µM with HT29 colon; 12.2 µM with KM12 colon; 23.8 µM in the assay on LOX IMVI melanoma; 69.4 µM in the assay on NCI-H23 lung. Moreover, the TGI is 12.4 µM with OVCAR-3 ovarian, 74.2 µM in the assay with OVCAR-8 ovarian, 12.8 µM with SF-295 CNS and more than 100 µM with SW-620 colon.
For the compound `COc1ccc2c(c1)CCC1C2CC[C@]2(C)/C(=N/OC(=O)Cc3ccccc3)CCC12` (stereo not given in full), the GI50 was 28.6 µM with DU-145 prostate; 25.2 µM in the assay with HOP-92 NSCLC; 22.6 µM in the assay with HT29 colon; 15 µM with KM12 colon; 18.5 µM in the assay on LOX IMVI melanoma; 16.2 µM with NCI-H23 lung. Also, the GI50 in the assay with OVCAR-3 ovarian was 15.8 µM; in the assay on OVCAR-8 ovarian, 23.2 µM; in the assay with SF-295 CNS, 16.7 µM; in the assay with SW-620 colon it was 35.5 µM. The TGI with DU-145 prostate was 69.2 µM; in the assay with HOP-92 NSCLC, 81 µM; in the assay on HT29 colon, more than 100 µM; with KM12 colon it was 30.4 µM; with LOX IMVI melanoma, 37.2 µM; in the assay with NCI-H23 lung, 32.7 µM. Also, the TGI in the assay with OVCAR-3 ovarian was 31 µM; in the assay on OVCAR-8 ovarian, 57.1 µM; with SF-295 CNS it was 33.8 µM; in the assay with SW-620 colon, more than 100 µM.
Take `COc1ccc(/C=C/c2n[nH]c3ccc(N4CCOC4=O)cc23)cc1`: the GI50 with DU-145 prostate was 3.43 µM; in the assay with HOP-92 NSCLC, 4 µM; in the assay with HT29 colon it was 1.49 µM; in the assay with KM12 colon, 1.02 µM; in the assay with LOX IMVI melanoma, 2.52 µM; with NCI-H23 lung, 1.79 µM. The GI50 with OVCAR-3 ovarian is 2.97 µM; with OVCAR-8 ovarian, 2.31 µM; in the assay on SF-295 CNS it was 3.44 µM; in the assay on SW-620 colon it was 1.64 µM. Further, the TGI with DU-145 prostate was more than 100 µM; in the assay with HOP-92 NSCLC it was 9.09 µM; with HT29 colon, more than 100 µM; with KM12 colon it was 27.1 µM; with LOX IMVI melanoma, 27.7 µM; with NCI-H23 lung it was 6.18 µM. Besides, the TGI in the assay on OVCAR-3 ovarian is 9.42 µM; in the assay with OVCAR-8 ovarian, more than 100 µM; in the assay on SF-295 CNS, 29.2 µM; in the assay with SW-620 colon, 10.8 µM.
`COc1ccc(NC(=O)c2sc3nc(C)c(C(O)c4ccccc4)cc3c2N)cc1` (stereo not given): the GI50 in the assay with DU-145 prostate was 3.21 µM; in the assay on HOP-92 NSCLC it was 12.7 µM; in the assay on HT29 colon, 2.81 µM; in the assay with KM12 colon it was 2 µM; in the assay with LOX IMVI melanoma, 4.25 µM; in the assay on NCI-H23 lung, 3.48 µM. The GI50 in the assay on OVCAR-3 ovarian was 2.48 µM; in the assay with OVCAR-8 ovarian it was 4.01 µM; in the assay on SF-295 CNS it was 1.25 µM; with SW-620 colon it was 2.64 µM. Further, the TGI with DU-145 prostate was more than 100 µM; with HOP-92 NSCLC, more than 100 µM; with HT29 colon it was 88.8 µM; in the assay with KM12 colon, 23.5 µM; in the assay on LOX IMVI melanoma, more than 100 µM; in the assay with NCI-H23 lung, more than 100 µM. Besides, the TGI in the assay on OVCAR-3 ovarian is 13.8 µM; in the assay on OVCAR-8 ovarian it was more than 100 µM; in the assay with SF-295 CNS it was 18.2 µM; with SW-620 colon, 28.1 µM.
On to `NS(=O)(=O)c1ccc(CCN=C=S)cc1`, for which the GI50 with DU-145 prostate was 1.8 µM; in the assay on HOP-92 NSCLC, 1.33 µM; in the assay with HT29 colon, 2.54 µM; in the assay on KM12 colon, 1.47 µM; in the assay on LOX IMVI melanoma, 1.92 µM; with NCI-H23 lung, 2.62 µM. Further, the GI50 with OVCAR-3 ovarian is 1.7 µM; with OVCAR-8 ovarian it was 3.15 µM; with SF-295 CNS, 14.6 µM; in the assay on SW-620 colon, 1.84 µM. Also, the TGI in the assay with DU-145 prostate is 3.83 µM; in the assay with HOP-92 NSCLC, 3.36 µM; in the assay on HT29 colon, 6.66 µM; in the assay with KM12 colon, 3.06 µM; in the assay on LOX IMVI melanoma, 3.72 µM; with NCI-H23 lung, 7.54 µM. For the same compound, the TGI was determined as 3.13 µM in the assay on OVCAR-3 ovarian, 10.3 µM in the assay with OVCAR-8 ovarian, 27.8 µM with SF-295 CNS and 3.96 µM in the assay with SW-620 colon.
